# Measured values from US20240391930A1, “SPIROCYCLIC BICYCLIC MODULATORS OF CHOLESTEROL BIOSYNTHESIS AND THEIR USE FOR PROMOTING REMYELINATION” (GENENTECH, INC., priority 2021, published 2024).
# Key:
# [1] = tested on: zymostenol accumulation in EpiSC-derived OPCs (EBP); test: GC/MS-based sterol profiling (zymostenol accumulation); type: cell-based; conditions: Mus musculus, 24 hours, 8 doses from 0.15 nM to 333 nM, read-out: Zymostenol GCMS EC50
# Summary of the method: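 Mouse epiblast stem cell-derived OPCs plated at 100,000 cells/well in growth-factor-free N2B27 and treated 24 h. Sterols extracted by modified Folch wash, silylated with BSTFA, and quantified by electron-impact GC/MS against cholesterol-d7 (zymostenol ion 458). Zymostenol normalised to 24 h 100 nM positive-control reference.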
# EpiSC-derived OPCs = test: In vitro phenotypic screening of OPCs (MBP high-content imaging); type: cell-based; conditions: Mus musculus, 72 h; percentage of MBP-positive oligodendrocytes, 3 days, 0.5 nM to 1000 nM; read-out: OPC EC50
# Summary of the method: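 Mouse EpiSC-derived OPCs seeded at 150,000/cm^2 without growth factors, treated 3 days at 37° C with 8-point doses from 1000 nM to 0.5 nM. Fixed, MBP immunostained with DAPI; high-content imaging gives percentage MBP-positive oligodendrocytes.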
Structure (SMILES),EC50 [1] [nM],EC50 (EpiSC-derived OPCs) [nM]
"CC(C)n1nc(-c2ccc(C(F)(F)F)cc2)cc1[C@H]1[C@@H]2C[C@H](N3CCC4(C3)CS(=O)(=O)C4)C[C@@H]21 [Compound 5, 6-((1R,3r,5S,6r)-6-(1-Isopropyl-3-(4-(trifluoromethyl)phenyl)-1H-pyrazol-5-yl)bicyclo[3.1.0]hexan-3-yl)-2-thia-6-azaspiro[3.4]octane 2,2-dioxide]",3.6,8
"CC(C)n1nc(-c2cncc(C(F)(F)F)c2)cc1[C@H]1[C@@H]2C[C@@H](N3CCC4(CC3)CS(=O)(=O)C4)C[C@@H]21 (single isomer, unassigned) [Compound 38]",2.9,4.9
"CC(C)n1nc(-c2cccc(C(F)(F)F)n2)cc1[C@H]1[C@@H]2C[C@H](N3CCC4(C3)CS(=O)(=O)C4)C[C@@H]21 (single isomer, unassigned) [Compound 12]",3.7,9.7
"CC(C)n1nc(-c2cccc(C(F)(F)F)n2)cc1[C@H]1[C@@H]2C[C@@H](N3CCC4(CC3)CS(=O)(=O)C4)C[C@@H]21 (single isomer, unassigned) [Compound 47]",1.9,1.7
"CC(C)n1nc(-c2cncc(C(F)(F)F)c2)cc1[C@H]1[C@@H]2C[C@H](N3CCC4(C3)CS(=O)(=O)C4)C[C@@H]21 (single isomer, unassigned) [Compound 4]",3,14
"CC(C)n1nc(-c2cccc(C(F)(F)F)n2)cc1[C@H]1[C@@H]2C[C@H](N3CCC4(CC3)CS(=O)(=O)C4)C[C@@H]21 (single isomer, unassigned) [Compound 48]",10,15
"CC(C)n1nc(-c2cccc(C(F)(F)F)c2)cc1[C@H]1[C@@H]2C[C@@H](N3CCC4(C3)CS(=O)(=O)C4)C[C@@H]21 (single isomer, unassigned) [Compound 2]",1.81,0.9
"CC(C)n1nc(-c2ccnc(C(F)(F)F)n2)cc1[C@H]1[C@@H]2C[C@@H](N3CCC4(CC3)CS(=O)(=O)C4)C[C@@H]21 (single isomer, unassigned) [Compound 49]",2.7,4.6
"CC(C)n1nc(-c2cc(C(F)(F)F)ccn2)cc1[C@H]1[C@@H]2C[C@@H](N3CCC4(C3)CS(=O)(=O)C4)C[C@@H]21 (single isomer, unassigned) [Compound 20]",1.2,39
"CC(C)n1nc(-c2cncc(C(F)(F)F)c2)cc1[C@H]1[C@@H]2C[C@H](N3CCC4(CC3)CS(=O)(=O)C4)C[C@@H]21 (single isomer, unassigned) [Compound 40]",5.9,15
"CC(C)n1nc(-c2cncc(C(F)(F)F)c2)nc1[C@H]1[C@@H]2C[C@H](N3CCC4(C3)CS(=O)(=O)C4)C[C@@H]21 (single isomer, unassigned) [Compound 17]",42,420
"CC(C)n1nc(-c2ccnc(C(F)(F)F)n2)cc1[C@H]1[C@@H]2C[C@H](N3CCC4(C3)CS(=O)(=O)C4)C[C@@H]21 [Compound 15, 6-((1R,3r,5S,6r)-6-(1-Isopropyl-3-(2-(trifluoromethyl)pyrimidin-4-yl)-1H-pyrazol-5-yl)bicyclo[3.1.0]hexan-3-yl)-2-thia-6-azaspiro[3.4]octane 2,2-dioxide]",3.2,6.6
"CC(C)n1nc(C(F)(F)F)cc1[C@H]1[C@@H]2C[C@H](N3CCC4(C3)CS(=O)(=O)C4)C[C@@H]21 (single isomer, unassigned) [Compound 23]",12,53
"CC(C)n1nc(-c2cncc(C(F)(F)F)c2)nc1[C@H]1[C@@H]2C[C@@H](N3CCC4(C3)CS(=O)(=O)C4)C[C@@H]21 (single isomer, unassigned) [Compound 16]",6.7,24
"CCn1nc(-c2cncc(C(F)(F)F)c2)cc1[C@H]1[C@@H]2C[C@@H](N3CCC4(C3)CS(=O)(=O)C4)C[C@@H]21 (single isomer, unassigned) [Compound 24]",1.8,9.3
"CC(C)n1nc(-c2cncc(C(F)(F)F)c2)cc1[C@H]1[C@@H]2C[C@H](N3CC4(C3)CS(=O)(=O)C4)C[C@@H]21 (single isomer, unassigned) [Compound 99*]",86,300
"CC(C)n1nc(-c2cccc(C(F)(F)F)n2)cc1[C@H]1[C@@H]2C[C@@H](N3CCC4(C3)CS(=O)(=O)C4)C[C@@H]21 (single isomer, unassigned) [Compound 11]",7.2,14
"CC(C)n1nc(-c2ccnc(C(F)(F)F)c2)cc1[C@H]1[C@@H]2C[C@H](N3CCC4(C3)CS(=O)(=O)C4)C[C@@H]21 (single isomer, unassigned) [Compound 19]",2.5,13
"CC(C)n1nc(-c2cncc(C(F)(F)F)c2)cc1[C@H]1[C@@H]2C[C@H](N3CC[C@@]4(CCS(=O)(=O)C4)C3)C[C@@H]21 (single isomer, unassigned) [Compound 9*]",2.7,3.8
"CC(C)n1nc(C2(C(F)(F)F)CC2)cc1[C@H]1[C@@H]2C[C@H](N3CCC4(C3)CS(=O)(=O)C4)C[C@@H]21 [Compound 32, 6-((1R,3r,5S,6r)-6-(1-Isopropyl-3-(1-(trifluoromethyl)cyclopropyl)-1H-pyrazol-5-yl)bicyclo[3.1.0]hexan-3-yl)-2-thia-6-azaspiro[3.4]octane 2,2-dioxide]",5.3,29
"CC(C)n1nc(-c2ccnc(C(F)(F)F)n2)cc1[C@H]1[C@@H]2C[C@@H](N3CCC4(C3)CS(=O)(=O)C4)C[C@@H]21 [Compound 28, 6-((1R,3s,5S,6r)-6-(1-isopropyl-3-(2-(trifluoromethyl)pyrimidin-4-yl)-1H-pyrazol-5-yl)bicyclo[3.1.0]hexan-3-yl)-2-thia-6-azaspiro[3.4]octane 2,2-dioxide]",6,39
"CC(C)n1nc(-c2cnc(C(F)(F)F)nc2)cc1[C@H]1[C@@H]2C[C@H](N3CCC4(C3)CS(=O)(=O)C4)C[C@@H]21 [Compound 6, 6-((1R,3r,5S,6r)-6-(1-Isopropyl-3-(2-(trifluoromethyl)pyrimidin-5-yl)-1H-pyrazol-5-yl)bicyclo[3.1.0]hexan-3-yl)-2-thia-6-azaspiro[3.4]octane 2,2-dioxide]",29,200
"CC(C)n1nc(-c2ccnc(C(F)(F)F)n2)cc1[C@H]1[C@@H]2C[C@H](N3CCC4(CC3)CS(=O)(=O)C4)C[C@@H]21 (single isomer, unassigned) [Compound 50]",20,69
"CC(C)n1nc(-c2cc(C(F)(F)F)ccn2)cc1[C@H]1[C@@H]2C[C@H](N3CCC4(C3)CS(=O)(=O)C4)C[C@@H]21 (single isomer, unassigned) [Compound 21]",3.1,6.6
"C=C(c1cc([C@H]2[C@@H]3C[C@H](N4CCC5(C4)CS(=O)(=O)C5)C[C@@H]32)n(C(C)C)n1)C(F)(F)F [Compound 31, 6-((1R,3r,5S,6r)-6-(1-Isopropyl-3-(3,3,3-trifluoroprop-1-en-2-yl)-1H-pyrazol-5-yl)bicyclo[3.1.0]hexan-3-yl)-2-thia-6-azaspiro[3.4]octane 2,2-dioxide]",7.1,30
"CC(C)n1nc(-c2cncc(C(F)(F)F)c2)cc1[C@H]1[C@@H]2C[C@@H](N3CC4(C3)CS(=O)(=O)C4)C[C@@H]21 (single isomer, unassigned) [Compound 98*]",55,300
"CCn1nc(-c2cncc(C(F)(F)F)c2)cc1[C@H]1[C@@H]2C[C@H](N3CCC4(C3)CS(=O)(=O)C4)C[C@@H]21 (single isomer, unassigned) [Compound 25]",0.36,4.2
"CC(C)n1nc(C(F)(F)F)cc1[C@H]1[C@@H]2C[C@@H](N3CCC4(C3)CS(=O)(=O)C4)C[C@@H]21 (single isomer, unassigned) [Compound 22]",12,53
"CC(C)n1nc(-c2ccnc(C(F)(F)F)c2)cc1[C@H]1[C@@H]2C[C@@H](N3CCC4(C3)CS(=O)(=O)C4)C[C@@H]21 (single isomer, unassigned) [Compound 18]",2.3,15
